Data on 1 molecule can be found in patent US20110064775A1, “METALLO-ORGANIC SYSTEM FOR THE ENCAPSULATION AND RELEASE OF COMPOUNDS OF INTEREST, METHOD FOR OBTAINING SAME AND USES THEREOF” (CONSEJO SUPERIOR DE INVESTIGACIONES CIENTIFÍCAS, priority 2008, published 2011).

SMILES strings stand for the structures. “Also recorded” adds a separate entry of the source.

The data set is described as follows: fluorescence emission spectrum of encapsulated versus free substance (integrity after encapsulation). It counts as physicochemical. To be noted: encapsulated vs free state. An excerpt:
Both images have been obtained using an AxioObserver Z1M (Zeiss Microscope) optical microscope.
The scanning and fluorescence images have been taken using a Hitachi S-570 scanning microscope and an AxioObserver Z1M (Zeiss 25 Microscope) optical microscope, respectively. The fluorescence intensities have been obtained using an Applied Photophysics fluorometer with a Quantel pulsed laser.

On to `COc1cccc2c1C(=O)c1c(O)c3c(c(O)c1C2=O)C[C@@](O)(C(=O)CO)C[C@@H]3O[C@H]1C[C@H](N)[C@H](O)[C@H](C)O1` [doxorubicin], for which the “modification or degradation during the encapsulation process” value is given as “has not been modified; also recorded: has not been modified or degraded”.
